# Patent publication US20130029955A1, “INHIBITORS OF GALECTIN-3 AND METHODS OF USE THEREOF” (priority 2011, published 2013)
# Tested on: TGR(mREN2)27 rats
# Test: Rat model of heart failure treated with a galectin-3 inhibitor
# Assay type: in vivo
# Experimental: In this study, N-acetyllactosamine (Gal3i) or an angiotensin-converting enzyme inhibitor (ACEi) was administered to TGR(mREN2)27 rats. Untreated TGR(mREN2)27 (REN2) and Sprague-Dawley (SD) rats were used as controls. TGR(mREN2)27 rats overexpress Ren-2, which leads to development of severe hypertension and ultimately heart failure. Fractional shortening, left ventricular end diastolic pressure (LVEDP), fibrosis, and survival were evaluated as a function of time.
smiles,measurement,setting,value
"CC(=O)N[C@H]1C(O)O[C@H](CO)[C@@H](O[C@@H]2O[C@H](CO)[C@H](O)[C@H](O)[C@H]2O)[C@@H]1O (some centres unmarked) [Gal3i, N-acetyllactosamine]",fractional shortening,"FIG. 3A, TGR(mREN2)27 rats, relative to placebo-treated REN2 control",prevented a significant loss
same,rate of decrease in fractional shortening compared with SD control group,"FIG. 3B, SD control group did not develop heart failure",comparable to that of the SD control group
same,reduction in fractional shortening from beginning of the study to sacrifice,"FIG. 3B, relative to placebo-treated REN2 control",significantly slowed the reduction in fractional shortening
same,left ventricular end diastolic pressure (LVEDP),"FIG. 3C, relative to placebo-treated REN2 control",significantly improved the LVEDP
same,Tau compared with SD control group,FIG. 3D,comparable to that of the SD control group
same,left ventricle pressure decay (Tau),"FIG. 3D, relative to placebo-treated REN2 control",significantly improved the Tau
same,cardiac fibrosis,"FIG. 4A/4B, cardiac tissue sections, compared to placebo-treated REN2 control group",significantly inhibited fibrosis
same,"survival (rats remaining, Kaplan-Meier)","FIG. 5, after 40 days, placebo-treated REN2 rats about 65%",approximately 80%
